Results: PubChem BioAssay AID1259418 (Broad Institute, 2018)
“And” between values parts separate entries of the source, which are not always exact repeats. Equal values may be shown once. Inconclusive results are not listed. The source made the active and inactive calls.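 How the source made its calls: active means fitted half-maximal concentration of signal decrease at or below twice the sample's top tested concentration; inconclusive means flat curve between -70 and -30 percent, or poor fit; inactive means flat within 30 percent, signal rise, or potency above limit.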 Starred links: 1 amine or outer side, 2 acyl side, 3 side chain; linkers in the order of their positions; H or OH if unused. Non-standard residues stand in square brackets, D forms with d. Residues, ends and D or L forms follow the SMILES beside them. Groups on a side chain read outwards from the residue. *: point of attachment. Ethylenediamine = C(CN[*:2])N[*:1]; Hyp = O=C(O)[C@@H]1C[C@@H](O)CN1; Phg = N[C@H](C(=O)O)c1ccccc1; CO = O=C([*:1])[*:2]; Bn = c1ccc(C*)cc1

Target: T. gondii ME49Luc in IFN-y HeLa, luciferase, 72 h
Test: T. gondii growth inhibition with IFN-gamma, dose response, cell-based, ME49Luc, HeLa, luciferase, 72 h (AID 1259418)

Row | Compound | AC50
1 | Cc1ccc(C(=O)Nc2c(C(=O)NCc3ccccn3)[nH]c3ccc(C)cc23)cc1 | 25.3 µM
2 | CC(C)CNC(=O)c1cc(-c2ccn(CC3CC3)n2)n2ccccc12 | 13.3 µM
3 | O=S(=O)(c1ccccc1)N(CC(F)(F)F)c1ccc(C(O)(C(F)(F)F)C(F)(F)F)cc1 | 19 µM
4 | COc1cccc(N(Cc2nc(-c3ccc(C)cc3)oc2C)S(=O)(=O)c2ccc(C)cc2)c1 | 7.83 µM
5 | COc1ccc(S(=O)(=O)N2CCCCN3[C@H](CO)[C@H](c4ccc(C#CCC(C)C)cc4)[C@H]3C2)cc1 | 5.52 µM
6 | c1ccc2c(Oc3nc(Nc4ccc(N5CCOCC5)cc4)c4ncn(C5CCCCC5)c4n3)cccc2c1 | 16.4 µM
7 | COc1ccccc1NC(=O)N1CCCCN2[C@H](CO)[C@@H](c3ccc(-c4cccc(C#N)c4)cc3)[C@@H]2C1 | 21.5 µM
8 | Fc1ccc(CSc2nc(NCc3ccccc3)c3ccccc3n2)cc1 | 17.8 µM
9 | COC(=O)c1ccccc1NC(=O)COc1nc(C)nc2ccccc12 | 20.9 µM
10 | CS(=O)(=O)N1CC(=O)N2[C@H](C1)[C@@H](c1ccc(C#Cc3ccc(F)cc3)cc1)[C@@H]2CO | 22.8 µM
11 | O=C(NCCc1csc(-c2ccccc2)n1)[C@H]1CCCN1C(=O)Cc1ccc(Cl)cc1 | > 39 µM (inactive)
12 | O=C(C1CCCCC1)N1CCC2(CC1)Nc1ccc(Cl)cc1-n1cccc12 | 24.7 µM
13 | O=C(c1cnccn1)N1CC(=O)N2[C@H](CO)[C@@H](c3ccc(/C=C/c4ccccc4)cc3)[C@@H]2C1 | 21.7 µM and 13.2 µM
14 | Cc1ccc(C)c(S(=O)(=O)N2CCC3(CC2)NCCN=C3NCc2ccccc2Cl)c1 | 5.36 µM
15 | Cc1ccccc1S(=O)(=O)N1CCCCN2[C@H](C1)[C@H](c1ccc(C#CCN(C)C)cc1)[C@@H]2CO | 18.6 µM
16 | Cc1ccn(CCNc2nccc(-c3c(C)nn(C)c3C)n2)n1 | 18.8 µM
17 | Cc1ccc(CNC(=O)COc2nc(C)nc3ccccc23)cc1 | > 39 µM (inactive)
18 | COc1ccc(-c2nc(NCCCN3CCCC(C)C3)c3ccccc3n2)cc1 (stereo unspecified) | > 20 µM (inactive)
19 | O=S(=O)(c1ccccc1)N1CCc2c([nH]c3ccccc23)C1c1cc(F)ccc1F (stereo unspecified) | 12.6 µM
20 | NCCCC[C@@H]1NC(=O)[C@@H](Cc2c[nH]c3ccccc23)NC(=O)[C@H](c2ccccc2)NC(=O)[C@@H]2C[C@@H](OC(=O)NCCN)CN2C(=O)[C@H](Cc2ccccc2)NC(=O)[C@H](Cc2ccc(OCc3ccccc3)cc2)NC1=O (cyclo([Hyp]([CO-Ethylenediamine])[Phg][dW]KY(Bn)F)) | 15.9 µM
21 | N#Cc1ccc(-c2ccc([C@@H]3[C@@H]4CN(C(=O)Nc5ccc6c(c5)OCO6)C[C@H]3N4)cc2)cc1 | 17.9 µM
22 | Cc1cccc(-c2nc(CN(c3ccccc3)S(=O)(=O)c3ccccc3)c(C)o2)c1 | 5.9 µM and 16.3 µM
23 | N#CCSC1=Nc2ccccc2C2=NC(CC(=O)NCc3cccs3)C(=O)N12 (stereo unspecified) | 19.6 µM

Row | Compound | AC50
24 | COc1ccc(S(=O)(=O)N(Cc2nc(-c3ccccc3OC)oc2C)c2ccccc2OC)cc1 | 13.7 µM
25 | COc1ccc(CN2C[C@@H]3C[C@H](C(=O)Nc4ccccc4)[C@@H](C2)O3)cc1 | > 39 µM (inactive)
26 | COc1ccc(-c2nc(NCCCN3CCN(C)CC3)c3ccccc3n2)cc1 | 14.4 µM
27 | COc1cc2c(cc1O)CC[C@@H]1[C@@H]2CC[C@]2(C)[C@@H](O)CC[C@@H]12 | 1.99 µM and 4.21 µM
28 | COc1ccc(N(Cc2nc(-c3ccccc3OC)oc2C)S(=O)(=O)c2ccc(C)cc2)cc1 | 19.3 µM
29 | Cc1cccc(-c2nc(Cn3nnc(-c4nc(-c5cccs5)no4)c3C)c(C)o2)c1 | > 39 µM (inactive)
30 | CN1c2ccc(-c3ccccc3)cc2[C@@H]2[C@@H](CCN2C(=O)CC2CC2)[C@@H]1CO | 18.5 µM and > 39 µM (inactive)
31 | CC(C)C#Cc1ccc([C@H]2[C@@H](CO)N3C(=O)CN(S(=O)(=O)c4ccccc4)C[C@H]23)cc1 | 13.6 µM
32 | Cc1cccc(C(=O)Nc2c(C(=O)N3CCN(c4ccccn4)CC3)[nH]c3ccccc23)c1 | > 39 µM (inactive)
33 | CS(=O)(=O)N1CCc2sc(C(=O)Nc3ccc(Cl)cc3)cc21 | 3.36 µM
34 | CCOc1ccc(-c2nc(CN(c3ccccc3)S(=O)(=O)c3cccs3)c(C)o2)cc1 | 15.2 µM
35 | CCN1CCN(Cc2ccc(Nc3nc(-c4ccc(OC)cc4)nc4ccccc34)cc2)CC1 | 11.3 µM and 12.5 µM
36 | COc1ccccc1N1CCN(C(=O)CC2Nc3c4ccccc4nc(=S)n3C2=O)CC1 (stereo unspecified) | 20.3 µM
37 | O=C(NC1CCCC1)N1CCCCN2[C@H](CO)[C@@H](c3ccc(-c4cccnc4)cc3)[C@H]2C1 | > 39 µM (inactive)
38 | O=C(c1ccc(F)cc1)N1CC(=O)N2[C@H](C1)[C@H](c1ccc(C#CCC3CCCC3)cc1)[C@@H]2CO | 10.6 µM
39 | O=C1CCc2cc(NC(=O)c3ccccc3F)ccc2N1 | 29.7 µM
40 | O=C1CNC[C@@H]2[C@@H](c3ccc(C#Cc4cccnc4)cc3)[C@@H](CO)N12 | 14.1 µM and 18.2 µM
41 | CCc1ccc(S(=O)(=O)N2CCC3(CC2)NCCN=C3NCc2ccc(C)cc2)cc1 | 8.88 µM
42 | Cc1ccc(N(Cc2nc(-c3ccccc3)oc2C)S(=O)(=O)c2cccs2)cc1 | 3.53 µM
43 | Cc1ccccc1-c1nc(CN2CCN(C(=O)Nc3ccc(F)cc3)CC2)c(C)o1 | > 39 µM (inactive)
44 | COc1cccc(-c2ccc([C@H]3[C@H]4CN(C(=O)Cc5ccncc5)CCCCN4[C@H]3CO)cc2)c1 | > 39 µM (inactive)
45 | CCc1cnc(N2[C@H](C#N)[C@H](c3ccc(-c4cccc(F)c4)cc3)[C@H]2CO)s1 | 21.3 µM
46 | CC(C)COC1CC2(CCN(C(=O)c3cccn3C)CC2)C1 | 14.6 µM

Row | Compound | AC50
47 | O=C(c1cccc(F)c1)N1CC(=O)N2[C@H](CO)[C@H](c3ccc(/C=C/c4ccccc4)cc3)[C@@H]2C1 | 19.6 µM
48 | O=C(NCCCN1CCCC1=O)C1CCN(Cc2cc3ccccc3n2Cc2cccc(F)c2)CC1 | 30.3 µM
49 | CCCNC(=O)N1[C@H](C#N)[C@H](c2ccc(-c3ccccc3F)cc2)[C@@H]1CO | 3.6 µM
50 | COc1ccccc1-c1noc(-c2nnn(Cc3nc(-c4ccc(C)cc4)oc3C)c2C)n1 | 15 µM
51 | CC(C)Cc1ccc(S(=O)(=O)N2CCC3(CC2)NCCN=C3NCc2ccccc2)cc1 | 14.4 µM
52 | O=C(NC1CCCC1)N1CCCCN2[C@H](CO)[C@H](c3ccc(-c4cccnc4)cc3)[C@H]2C1 | 24.1 µM
53 | O=C1c2c(O)ccc(O)c2C(=O)c2c(NCCNCCO)ccc(NCCNCCO)c21 | 0.128 µM
54 | CCOc1ccccc1N(Cc1nc(-c2ccccc2)oc1C)S(=O)(=O)c1ccccc1 | 7.75 µM
55 | Cc1ccc2c(c1C)-n1cccc1C1(CCN(C(=O)c3ccccc3Br)CC1)N2 | 17.7 µM
56 | CC(C)c1cc(C2CCCN2Cc2c[nH]c3ccccc23)on1 (stereo unspecified) | 7.79 µM and 14 µM
57 | O=C(NCc1ccccc1)C1CC2(CO1)CN(C(=O)c1ccc(F)cc1)c1ccccc12 (stereo unspecified) | > 39 µM (inactive)
58 | COc1ccc(-c2nc3c(s2)CN(S(=O)(=O)c2ccc(C)c(C)c2)CC3)cc1 | 20.7 µM
59 | O=S(=O)(c1cccs1)N1CCC2(CC1)NCCN=C2NCc1cccc(F)c1 | 26.1 µM
60 | Cc1ccccc1N(Cc1nc(-c2ccccc2)oc1C)S(=O)(=O)c1cccs1 | > 39 µM (inactive)
61 | O=C(NC1CCCC1)N1CCCCN2[C@@H](CO)[C@H](c3ccc(-c4cccnc4)cc3)[C@@H]2C1 | 23.3 µM
62 | CCOc1ccccc1-c1nc(CN(c2ccc(OC)cc2)S(=O)(=O)c2ccc(C)cc2)c(C)o1 | 10.7 µM
63 | COc1cccc(S(=O)(=O)N2CCCCN3[C@H](CO)[C@@H](c4ccc(C#CCC(C)C)cc4)[C@@H]3C2)c1 | 5.58 µM and 10.4 µM and 10.5 µM
64 | Cc1ccc(-c2nc(CN3CCN(C(=O)Nc4ccc(C)c(Cl)c4)CC3)c(C)o2)cc1 | > 39 µM (inactive)
65 | OC(c1cc(C(F)(F)F)nc2c(C(F)(F)F)cccc12)C1CCCCN1 (stereo unspecified) | 6.5 µM
66 | COc1cccc(-c2nc(C)c(-c3ccc(SCc4ccc(F)cc4)nn3)s2)c1 | 6.5 µM
67 | O=C(Cc1ccncc1)N1CCCCN2[C@H](C1)[C@@H](c1ccc(C#Cc3ccccc3F)cc1)[C@@H]2CO | 5.02 µM
68 | COc1ccc(CN2CCC(c3cc4c(ncn4C)c(-c4ccc(OC)cc4)n3)CC2)cc1 | 24.7 µM
69 | CCOc1ccc(-c2nc(CN3CCN(C(=O)Nc4cccc(Cl)c4)CC3)c(C)o2)cc1 | 17.1 µM

Row | Compound | AC50
70 | COCCNc1nc(-c2ccc(OC)cc2)nc2ccccc12 | 18.4 µM
71 | CCCc1ccc(S(=O)(=O)N2CCC[C@@H]2C(=O)NCCc2csc(-c3ccccc3)n2)cc1 | 3.78 µM and 16 µM
72 | CC(C)CC#Cc1ccc([C@H]2[C@@H](CO)N3C(=O)CN(C(=O)Nc4cc(F)ccc4F)C[C@H]23)cc1 | 22.1 µM and 15.7 µM
73 | C=CC[C@@H]1CC=C[C@@H](C)N1C(=O)CCn1c(C)cc(C)nc1=O | 26.4 µM
74 | O=C(CC1N=C2c3ccccc3N=C(SCc3ccccc3Cl)N2C1=O)NCc1ccco1 (stereo unspecified) | > 39 µM (inactive)
75 | CC(C)Oc1ccc(NC(=O)c2nc3c(n2C(C)C)CCN(C(=O)c2ccccc2)C3)cc1 | 10.6 µM
76 | O=C(CC1N=C2c3ccccc3N=C(SCc3ccccc3Cl)N2C1=O)NCCc1ccccc1 (stereo unspecified) | 15.9 µM
77 | O=C(Nc1cccc(F)c1)N1CCCCN2[C@H](CO)[C@H](c3ccc(C#Cc4cccnc4)cc3)[C@H]2C1 | 19.3 µM
78 | CCc1c(C)sc2c1CCN(Cc1nc(-c3cccc(C)c3)oc1C)C2c1ccccc1 (stereo unspecified) | 9.68 µM
79 | O=C(c1ccc[nH]1)N1CCC2(CC1)COCCN(c1ncccn1)C2 | 7.07 µM
80 | N#Cc1cccc(-c2ccc([C@@H]3[C@H]4CN(Cc5ccccc5F)CCCCN4[C@H]3CO)cc2)c1 | 16.5 µM
81 | Clc1ccccc1CSc1nc(NCc2ccccc2)c2ccccc2n1 | > 39 µM (inactive)
82 | O=C(NCCc1csc(-c2ccccc2)n1)C1CCN(S(=O)(=O)c2cccc(Cl)c2)CC1 | > 39 µM (inactive)
83 | O=C(Nc1ccc(F)cc1)N1CC(=O)N2[C@@H](CO)[C@@H](c3ccc(-c4cccc(F)c4)cc3)[C@@H]2C1 | 18.5 µM
84 | O=S(=O)(c1cccs1)N1CCC2(CC1)NCCN=C2NCc1ccc(Cl)cc1 | > 39 µM (inactive)
85 | Cc1ccccc1-c1ccc([C@H]2[C@@H](CO)N3CCCCN(S(=O)(=O)Cc4ccccc4)C[C@H]23)cc1 | 17.6 µM and 13.3 µM
86 | CCN1CCCC1CNC(=O)C1CCN(Cc2cc3ccccc3n2Cc2ccccc2Cl)CC1 (stereo unspecified) | 28.7 µM
87 | Cc1cnn(C(C)C(=O)N2CCc3[nH]nc(-c4ccc(F)c(F)c4)c3C2)c1 (stereo unspecified) | > 20 µM (inactive)
88 | CC(C)Cc1ccc(S(=O)(=O)N2CCC3(CC2)NCCN=C3NCc2cccc(F)c2)cc1 | 5.25 µM
89 | COc1ccc(-c2nc(NCCCN3CCCC3)c3ccccc3n2)cc1 | 14.2 µM
90 | CC(C)CC#Cc1ccc([C@@H]2[C@@H](CO)N3CCCCN(C(=O)Nc4ccccc4)C[C@H]23)cc1 | 13.5 µM and 9.09 µM
91 | Cc1cc2nc(CN3CCCC(CCc4ccc(F)cc4F)C3)cc(=O)n2[nH]1 (stereo unspecified) | > 20 µM (inactive)
